Values quoted from earlier work, collected in patent US20150313903A1, “METHODS OF TREATING COGNITIVE IMPAIRMENT ASSOCIATED WITH NEURODEGENERATIVE DISORDERS” (Ovid Therapeutics Inc., priority 2014, published 2015).
Where two headings read alike, the source gives them in different places.

Assays:
[1] = set-up: key: *: shown to have a beneficial effect in ALS; settings: in vivo
[2] = in vivo
[3] = in vivo; remark: listed apart in the source
serotonin-S2 receptor = serotonin-S2 receptor (Rattus norvegicus, UniProt P14842); settings: in vivo; dose as low as
Sequence of serotonin-S2 receptor (P14842 whole entry): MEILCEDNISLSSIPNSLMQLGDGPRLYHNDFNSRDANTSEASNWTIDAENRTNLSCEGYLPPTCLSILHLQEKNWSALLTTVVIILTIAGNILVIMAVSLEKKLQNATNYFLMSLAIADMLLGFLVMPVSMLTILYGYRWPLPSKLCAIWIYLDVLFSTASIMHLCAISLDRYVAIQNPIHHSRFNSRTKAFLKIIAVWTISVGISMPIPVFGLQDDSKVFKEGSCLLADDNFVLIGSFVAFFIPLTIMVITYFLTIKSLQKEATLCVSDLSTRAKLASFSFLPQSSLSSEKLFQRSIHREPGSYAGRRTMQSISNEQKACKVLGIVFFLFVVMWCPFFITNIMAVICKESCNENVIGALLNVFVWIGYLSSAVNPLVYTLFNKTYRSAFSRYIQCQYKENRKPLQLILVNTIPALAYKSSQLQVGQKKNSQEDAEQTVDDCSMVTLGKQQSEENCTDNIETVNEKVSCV

[4] = not given; remark: listed apart in the source
[5] = MPTP model of parkinsonism in mice
[6] = generalized anxiety disorders, versus control subjects
[7] = in vivo; remark: listed apart in the source
[8] = alcoholics
[9] = classical conditioning model
BDNF = settings: in vivo
dopamine transporter = target: T1, dopamine transporter (Homo sapiens, UniProt Q01959); settings: within the prefrontal cortex (PFC)
T1 construct: host or cells: prefrontal cortex
T1 sequence (Q01959 whole entry): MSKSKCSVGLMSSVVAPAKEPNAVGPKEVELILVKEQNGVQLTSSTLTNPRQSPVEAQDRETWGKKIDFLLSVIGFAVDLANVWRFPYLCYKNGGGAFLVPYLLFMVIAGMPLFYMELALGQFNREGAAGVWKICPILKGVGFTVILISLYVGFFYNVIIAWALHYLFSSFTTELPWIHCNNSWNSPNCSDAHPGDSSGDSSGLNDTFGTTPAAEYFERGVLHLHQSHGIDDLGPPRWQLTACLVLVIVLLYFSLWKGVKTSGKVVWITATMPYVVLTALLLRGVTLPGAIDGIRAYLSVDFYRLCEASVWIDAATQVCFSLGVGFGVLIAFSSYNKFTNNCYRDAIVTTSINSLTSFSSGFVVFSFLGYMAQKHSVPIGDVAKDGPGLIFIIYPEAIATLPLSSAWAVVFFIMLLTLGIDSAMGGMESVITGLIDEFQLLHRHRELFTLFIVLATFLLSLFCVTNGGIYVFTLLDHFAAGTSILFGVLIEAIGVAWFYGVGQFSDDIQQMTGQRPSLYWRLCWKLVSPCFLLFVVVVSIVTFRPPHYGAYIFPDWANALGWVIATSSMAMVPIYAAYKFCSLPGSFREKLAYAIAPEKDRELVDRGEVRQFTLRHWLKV

[10] = direct injection into the hippocampus, rats
[11] = subjects taking ritanserin
[12] = several trials, monotherapy
[13] = acute dose 10 mg, healthy volunteers
[14] = Parkinson's patients, later studies
[15] = open pilot trial, parkinsonian patients

## Nc1nc2ccc(OC(F)(F)F)cc2s1 [Riluzole, 2-amino-6-(trifluoromethoxy) benzothiazole]
[1]
  beneficial effect in ALS (asterisk mark): *Riluzole

## CC(C)COc1ccc(CNC(=O)N(Cc2ccc(F)cc2)C2CCN(C)CC2)cc1 [Pimavanserin]
[2]
  efficacy in psychosis associated with Parkinson's disease: effective
[3]
  reversing PCP-induced deficits: no activity

## Cc1nc2sccn2c(=O)c1CCN1CCC(=C(c2ccc(F)cc2)c2ccc(F)cc2)CC1 [ritanserin, 6-[2-[4-[bis(4-fluorophenyl)methylene]-1-piperidinyl]ethyl]-7-methyl-5H-thiazolo[3,2-a]pyrimidin-5-one]
serotonin-S2 receptor
  dose giving 50% serotonin-S2 receptor occupation: 0.08 m/kg
[13]
  effect on REM sleep: decreased REM sleep
  effect on Stage 2 sleep: decreased Stage 2 sleep
  effect on slow-wave sleep: increased slow-wave sleep
Administered just before bedtime
  increase in SWS during the night, on average: about 52 minutes
After morning administration
  psychomotor sedation during the day: no psychomotor sedation
After repeated administration
  tolerance to the sleep-enhancing effects: no tolerance
At clinical doses
  SWS duration: can double SWS duration
Dose 1 mg
  average increase in slow-wave sleep: 53 min
Dose 3 mg
  average increase in slow-wave sleep: 82 min
Dose 10 mg
  average increase in slow-wave sleep: 101 min
Dose 30 mg
  average increase in slow-wave sleep: 136.5 min
Morning administration
  increase in SWS during the night, on average: about 94 minutes
[4]; [14]
  bradykinesia: reduced bradykinesia
  gait: improved gait
[4]; [15]
  L-Dopa-induced dyskinesia: reduced L-Dopa-induced dyskinesia
  tremor, rigidity, or akinesia: no significant modifying
[5]
  motor deficit: reduced motor deficit
[6]
  self-rating of treated subjects: calmer, more relaxed, and more energetic than control subjects
[7]
  blocking the physiological effects of LSD: some activity
[8]
  outcome of Phase 3 trial for alcohol abstinence: failed a Phase 3 trial
[9]
  effect on learning: impair learning
BDNF
  expression of brain (hippocampal) BDNF: increases the expression
Dopamine transporter
  inhibition of the dopamine transporter: selectively inhibit the dopamine transporter
[10]
  effect on learning: inhibit learning
[11]
  weight gain: Weight gain is not observed
[12]
  efficacy in schizophrenia: did show efficacy
